Converted amounts (≈) assume the structure as drawn.
Tests used:
[1] = Intrinsic clearance in rat liver microsomes; format: ADME; conditions: read-out: CLH
[2] = target: T1, Glucose-dependent insulinotropic receptor (Homo sapiens) (UniProt Q8TDV5); test: Agonist activity at human GPR119 by cAMP assay relative to control; format: functional; set-up: concentration or dose not given beside the values
T1 sequence (whole entry): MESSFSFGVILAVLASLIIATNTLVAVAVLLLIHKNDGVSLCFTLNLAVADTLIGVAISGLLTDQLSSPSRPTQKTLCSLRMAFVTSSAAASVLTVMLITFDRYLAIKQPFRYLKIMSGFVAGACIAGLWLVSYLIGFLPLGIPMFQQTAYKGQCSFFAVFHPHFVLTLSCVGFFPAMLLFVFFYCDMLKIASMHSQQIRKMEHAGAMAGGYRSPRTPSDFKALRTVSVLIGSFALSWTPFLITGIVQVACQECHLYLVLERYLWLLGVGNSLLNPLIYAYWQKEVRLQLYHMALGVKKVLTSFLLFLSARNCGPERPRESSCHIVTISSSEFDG

Rattus norvegicus [3] = test: (§1) Volume of distribution in Wistar Han rat at 0.5 mg/kg, iv LC-MS/MS method; format: ADME, organism-based; conditions: in vivo
[4] = target: T2, Glucose-dependent insulinotropic receptor (Homo sapiens, UniProt Q8TDV5); test: Agonist activity at human GPR119 expressed in CHO cells by cAMP assay; format: functional, cell-based
T2 sequence (Q8TDV5 whole entry): T1 sequence (whole entry)

Rattus norvegicus [5] = test: (§2) Half life in Wistar Han rat at 0.5 mg/kg, iv LC-MS/MS method; format: ADME, organism-based; conditions: in vivo
[6] = Fraction unbound in rat plasma; format: ADME, cell-free
[7] = Kinetic solubility in FaSSIF at pH 6.5; format: physicochemical; conditions: FaSSIF, read-out: Kinetic_solubility
[8] = Lipophilicity, logD of the compound at pH 7 by HPLC method; format: physicochemical; conditions: buffer
Rattus norvegicus [9] = test: Unbound volume of distribution in Wistar Han rat at 0.5 mg/kg, iv LC-MS/MS method; format: ADME, organism-based; conditions: in vivo
[10] = Clearance in Wistar Han rat at 0.5 mg/kg, iv LC-MS/MS method; format: ADME, organism-based; conditions: in vivo
[11] = target: T3, Glucose-dependent insulinotropic receptor (Mus musculus) (UniProt Q7TQP3); test: Agonist activity at mouse GPR119 by cAMP assay relative to control; format: functional; set-up: concentration or dose not given beside the values
T3 sequence (whole entry): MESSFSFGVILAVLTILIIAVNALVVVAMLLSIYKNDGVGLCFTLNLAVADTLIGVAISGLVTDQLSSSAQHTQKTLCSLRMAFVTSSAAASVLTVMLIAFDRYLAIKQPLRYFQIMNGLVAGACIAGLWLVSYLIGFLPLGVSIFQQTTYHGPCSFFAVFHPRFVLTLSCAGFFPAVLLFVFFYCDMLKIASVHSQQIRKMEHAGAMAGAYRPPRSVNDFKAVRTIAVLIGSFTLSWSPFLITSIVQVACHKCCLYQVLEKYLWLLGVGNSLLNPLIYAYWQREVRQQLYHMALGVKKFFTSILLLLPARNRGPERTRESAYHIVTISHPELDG

[12] = target: T4, Glucose-dependent insulinotropic receptor (Mus musculus, UniProt Q7TQP3); test: Agonist activity at mouse GPR119 by cAMP assay; format: functional
T4 sequence (Q7TQP3 whole entry): T3 sequence (whole entry)

[13] = as §1; format: ADME, organism-based; conditions: Wistar Han, in vivo
[14] = as §2; format: ADME, organism-based; conditions: Wistar Han, in vivo
[15] = Drug level in mouse blood at 1 mg/kg after 90 mins; format: ADME, organism-based; conditions: whole blood, read-out: Drug uptake
Cavia porcellus = organism: Cavia porcellus; test: Toxicity in guinea pig assessed as effect on cardiovascular parameters at 64 times over target clinical exposure level; format: organism-based, Heart; conditions: in vivo
[16] = Fraction unbound in human plasma; format: ADME, cell-free
[17] = Drug level in mouse blood at 0.3 mg/kg after 90 mins; format: ADME, organism-based; conditions: whole blood, read-out: Drug uptake
[18] = Intrinsic clearance in dog liver microsomes; format: ADME, Canis lupus familiaris; conditions: read-out: CLH
[19] = Intrinsic clearance in human liver microsomes; format: ADME; conditions: read-out: CLH
[20] = Half life in rhesus monkey; format: ADME, organism-based, Macaca mulatta; conditions: in vivo
[21] = Solubility in PEG200; format: physicochemical
[22] = Fraction unbound in rhesus monkey plasma; format: ADME, cell-free, Macaca mulatta
[23] = Drug level in mouse blood at 10 mg/kg after 90 mins; format: ADME, organism-based; conditions: whole blood, read-out: Drug uptake
Mus musculus [24] = test: Reduction in blood glucose excursion in po dosed C57BL/6 Tac mouse by OGTT method; format: functional, organism-based
[25] = target: T5, Nuclear receptor subfamily 1 group I member 2 (Homo sapiens, UniProt O75469); test: Activation of human PXR; format: ADME
T5 sequence (O75469 whole entry): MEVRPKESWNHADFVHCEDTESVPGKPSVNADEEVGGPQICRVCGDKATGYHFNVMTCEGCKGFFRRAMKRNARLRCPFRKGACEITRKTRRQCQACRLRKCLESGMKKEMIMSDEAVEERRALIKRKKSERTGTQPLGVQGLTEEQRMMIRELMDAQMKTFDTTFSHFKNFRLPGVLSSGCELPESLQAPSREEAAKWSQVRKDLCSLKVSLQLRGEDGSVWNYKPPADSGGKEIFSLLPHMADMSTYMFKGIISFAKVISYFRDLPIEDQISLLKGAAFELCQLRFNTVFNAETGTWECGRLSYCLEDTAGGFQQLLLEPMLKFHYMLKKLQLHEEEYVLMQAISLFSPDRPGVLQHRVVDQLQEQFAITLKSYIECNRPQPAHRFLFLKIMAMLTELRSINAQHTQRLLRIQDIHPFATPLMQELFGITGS

[26] = Solubility in PEG400; format: physicochemical
[27] = target: T5, Nuclear receptor subfamily 1 group I member 2; test: Activation of human PXR relative to control; format: ADME
[28] = Plasma clearance in Wistar Han rat at 0.5 mg/kg, iv LC-MS/MS method; format: ADME, organism-based
[29] = Solubility in SGF; format: physicochemical
[30] = Fraction unbound in dog plasma; format: ADME, cell-free, Canis lupus familiaris
[31] = Oral bioavailability in Wistar Han rat; format: ADME, organism-based; conditions: in vivo
[32] = Volume of distribution in Beagle dog; format: ADME, organism-based, Canis lupus familiaris; conditions: in vivo
Cytochrome P450 3A4 = Cytochrome P450 3A4 (Homo sapiens, UniProt P08684); test: Inhibition of CYP3A4 (unknown origin)
Chain of Cytochrome P450 3A4 (P08684 whole entry): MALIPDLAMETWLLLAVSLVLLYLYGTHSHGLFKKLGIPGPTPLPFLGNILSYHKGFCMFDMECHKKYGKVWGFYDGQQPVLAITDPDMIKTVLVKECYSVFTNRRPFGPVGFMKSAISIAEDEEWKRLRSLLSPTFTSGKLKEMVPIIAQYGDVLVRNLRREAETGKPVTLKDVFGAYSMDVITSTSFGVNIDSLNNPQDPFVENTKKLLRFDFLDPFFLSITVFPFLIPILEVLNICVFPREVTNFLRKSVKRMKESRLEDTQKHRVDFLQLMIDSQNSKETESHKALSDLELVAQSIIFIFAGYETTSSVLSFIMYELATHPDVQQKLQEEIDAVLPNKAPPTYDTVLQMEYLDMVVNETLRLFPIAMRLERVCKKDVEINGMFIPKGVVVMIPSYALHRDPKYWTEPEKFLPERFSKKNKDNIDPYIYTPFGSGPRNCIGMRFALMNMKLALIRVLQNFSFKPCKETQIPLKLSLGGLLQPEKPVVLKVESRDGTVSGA

[33] = Plasma clearance in Beagle dog; format: ADME, organism-based, Canis lupus familiaris
[34] = Plasma clearance in rhesus monkey; format: ADME, organism-based, Macaca mulatta
[35] = Solubility in FaSSIF; format: physicochemical; conditions: simulated gi fluid
[36] = Volume of distribution in rhesus monkey; format: ADME, organism-based, Macaca mulatta; conditions: in vivo
[37] = Drug level in mouse blood at 3 mg/kg after 90 mins; format: ADME, organism-based; conditions: whole blood, read-out: Drug uptake
[38] = Half life in Beagle dog; format: ADME, organism-based, Canis lupus familiaris; conditions: in vivo
[39] = Oral bioavailability in rhesus monkey; format: ADME, organism-based, Macaca mulatta; conditions: in vivo
[40] = Oral bioavailability in Beagle dog; format: ADME, organism-based, Canis lupus familiaris; conditions: in vivo
Mus musculus [41] = test: Reduction in blood glucose excursion in po dosed C57BL/6 Tac mouse assessed as minimal dose for maximum efficacy by OGTT method; format: functional; conditions: read-out: MED
[42] = Intrinsic clearance in monkey liver microsomes; format: ADME, Macaca mulatta; conditions: rhesus monkey, read-out: CLH

Which results are given for CCS(=O)(=O)c1ccc(COC[C@@H]2C[C@@H]2C2CCN(c3nc(C(C)C)no3)CC2)c(F)c1?
CLint scaled [1]: 905 mL/min/kg; Activity [2]: 71%; Vd (Rattus norvegicus [3]): 4.8 L/kg; EC50 [4]: 0.8 nM; t1/2 (Rattus norvegicus [5]): 1.5 h; fraction unbound [6]: 0.058; solubility kinetic [7]: 127 µM (≈ 59.1 µg/mL); logD [8]: 4; Vdu (Rattus norvegicus [9]): 62 L/kg

Which clearance [10] does the source give for CS(=O)(=O)c1ccc(COC[C@@H]2C[C@@H]2C2CCN(c3ncc(Cl)cn3)CC2)nc1 here?
Its clearance is 9 mL/min/kg.

And the Activity [11]?
Its Activity is 56%.

And the EC50 [12]?
Its EC50 is 3.6 nM.

And the CLint scaled [1]?
The CLint scaled was 553 mL/min/kg.

What about the Activity [2] of the same compound?
Its Activity is 53%.

What about the Vd [13] of the same compound?
Its Vd is 1.3 L/kg.

What about the EC50 [4] of the same compound?
Its EC50 is 8.7 nM.

And the half-life [14]?
Its half-life is 1.8 h.

And the fraction unbound [6]?
The fraction unbound was 0.016.

And the logD [8]?
Its logD is 3.7.

And the Vdu (Rattus norvegicus [9])?
Its Vdu is 81 L/kg.

Which results are given for CCS(=O)(=O)c1ccc(OCC[C@@H]2C[C@@H]2C2CCN(c3nc(C(C)C)no3)CC2)c(F)c1?
CLint scaled [1]: 675 mL/min/kg; Activity [2]: 69%; Vd (Rattus norvegicus [3]): 4.8 L/kg; EC50 [4]: 1.7 nM; t1/2 (Rattus norvegicus [5]): 6.5 h; fraction unbound [6]: 0.02; solubility kinetic [7]: 61 µM (≈ 28.4 µg/mL); logD [8]: 4.2; Vdu (Rattus norvegicus [9]): 242 L/kg

Which results are given for COC(C)c1cnc(N2CCC([C@H]3C[C@H]3COCc3ccc(S(C)(=O)=O)cc3F)CC2)nc1 (stereo in doubt; 30)?
EC50 [12]: 3.3 nM; EC50 [4]: 4.6 nM; t1/2 (Rattus norvegicus [5]): 1 h; solubility kinetic [7]: 137 µM (≈ 65.4 µg/mL); logD [8]: 3.9

What does the source list for CCS(=O)(=O)c1ccc(COC[C@@H]2C[C@@H]2C2CCN(c3ncc(COC)cn3)CC2)c(F)c1?
Activity [11]: 87%; EC50 [12]: 12.5 nM; Activity [2]: 58%; EC50 [4]: 7.1 nM; half-life [14]: 2.1 h; solubility kinetic [7]: 129 µM (≈ 61.6 µg/mL); logD [8]: 3.8

For COCc1cnc(N2CCC([C@H]3C[C@H]3COCc3ccc(S(C)(=O)=O)cc3F)CC2)nc1, which concentration at 1.5 h [15] is on record?
Its concentration at 1.5 h is 86 nM.

And the Activity (Cavia porcellus)?
The Activity was “Non-toxic”.

And the fraction unbound [16]?
Its fraction unbound is 0.049.

And the concentration at 1.5 h [17]?
The concentration at 1.5 h was 18 nM.

What about the Activity [11] of the same compound?
Its Activity is 97%.

What about the CLint scaled [18] of the same compound?
Its CLint scaled is 60 mL/min/kg.

And the EC50 [12]?
The EC50 was 1.9 nM.

What about the CLint scaled [19] of the same compound?
The CLint scaled was 42 mL/min/kg.

What about the half-life [20] of the same compound?
The half-life was 2.3 h.

And the CLint scaled [1]?
Its CLint scaled is 1100 mL/min/kg.

And the Activity [2]?
The Activity was 88%.

And the solubility [21]?
Its solubility is 129000 µg/mL (≈ 278000 µM).

And the fraction unbound [22]?
Its fraction unbound is 0.032.

What about the concentration at 1.5 h [23] of the same compound?
The concentration at 1.5 h was 622 nM.

And the Activity (Mus musculus [24])?
Its Activity is “Dose-dependent effect”.

What about the EC50 [25] of the same compound?
The EC50 was greater than 30000 nM.

What about the solubility [26] of the same compound?
The solubility was 325000 µg/mL (≈ 701000 µM).

What about the Activity [27] of the same compound?
Its Activity is 39%.

And the clearance [28]?
The clearance was 41 mL/min/kg.

And the solubility [29]?
Its solubility is 870 µg/mL (≈ 1880 µM).

What about the Vd [13] of the same compound?
Its Vd is 2.2 L/kg.

And the fraction unbound [30]?
The fraction unbound was 0.055.

And the EC50 [4]?
The EC50 was 2.1 nM.

And the bioavailability [31]?
The bioavailability was 27%.

And the Vd [32]?
The Vd was 6.5 L/kg.

What about the IC50 (Cytochrome P450 3A4) of the same compound?
Its IC50 is 40000 nM.

What about the clearance [33] of the same compound?
Its clearance is 6 mL/min/kg.

And the clearance [34]?
The clearance was 16 mL/min/kg.

And the half-life [14]?
The half-life was 1 h.

And the solubility [35]?
Its solubility is 56 µg/mL (≈ 121 µM).

What about the fraction unbound [6] of the same compound?
The fraction unbound was 0.041.

And the solubility kinetic [7]?
Its solubility kinetic is 161 µM (≈ 74.6 µg/mL).

What about the Vd [36] of the same compound?
The Vd was 2 L/kg.

What about the logD [8] of the same compound?
Its logD is 3.5.

And the concentration at 1.5 h [37]?
The concentration at 1.5 h was 302 nM.

What about the half-life [38] of the same compound?
Its half-life is 17 h.

What about the bioavailability [39] of the same compound?
The bioavailability was 5%.

And the bioavailability [40]?
The bioavailability was 60%.

And the minimal effective dose (Mus musculus [41])?
Its minimal effective dose is 3 mg/kg.

And the CLint scaled [42]?
The CLint scaled was 319 mL/min/kg.

What about the Vdu (Rattus norvegicus [9]) of the same compound?
The Vdu was 54 L/kg.

Which results are given for O=S(=O)(CCO)c1ccc(COC[C@@H]2C[C@@H]2C2CCN(c3ncc(Cl)cn3)CC2)c(F)c1?
Activity [11]: 121%; EC50 [12]: 1.7 nM; Activity [2]: 68%; EC50 [4]: 2.3 nM; half-life [14]: 0.9 h; solubility kinetic [7]: 83 µM (≈ 40.2 µg/mL); logD [8]: 4.8
